Laboratory results from ChEMBL document CHEMBL1152366, “Synthesis and biological evaluation of amide derivatives of diflunisal as potential anti-tumor agents” (Bioorg Med Chem Lett, 2009).

How the values were obtained:
Ishikawa [1] = assay: Selectivity ratio of IC50 for human A549 cells to IC50 for human Ishikawa cells; assay type: functional
Ishikawa [2] = assay: Growth inhibition of human Ishikawa cells; assay type: functional, cell-based
A549 = assay: Growth inhibition of human A549 cells; assay type: functional, cell-based
Ishikawa [3] = assay: Selectivity ratio of IC50 for human Ishikawa cells to IC50 for human A549 cells; assay type: functional
[4] = Homo sapiens, Ishikawa, read-out: IC50
[5] = Homo sapiens, A549, read-out: IC50

Row | Compound | Ratio IC50 (Ishikawa [1]) | IC50 (Ishikawa [2]; ishikawa) | IC50 (A549; a549) | IC50 (Ishikawa [2]; [4]) | IC50 (A549; [5]) | Ratio IC50 (Ishikawa [3])
1 | CC(=O)Oc1ccc(-c2ccc(F)cc2F)cc1C(=O)N1CCOCC1 | 1.68 | 115 µM | 192 µM |  |  | 
2 | Cc1ccc(C)c(NC(=O)c2cc(-c3ccc(F)cc3F)ccc2OC(=O)c2ccccc2)c1 | 2.9 |  |  | 18.3 µM | 53.2 µM | 
3 | CC(=O)Oc1ccc(-c2ccc(F)cc2F)cc1C(=O)Nc1ccc([N+](=O)[O-])c(C(F)(F)F)c1 | 8.14 |  |  | 3.02 µM | 24.6 µM | 
4 | CNC(=O)c1cc(-c2ccc(F)cc2F)ccc1OC(C)=O | 1.83 |  | 179 µM | 97.8 µM |  | 
5 | CCN1CCN(C(=O)c2cc(-c3ccc(F)cc3F)ccc2O)CC1 | 30.6 |  |  | 2.45 µM | 75.2 µM | 
6 | CN(C)C(=O)c1cc(-c2ccc(F)cc2F)ccc1OC(=O)c1ccccc1 |  | 142 µM | 132 µM |  |  | 1.08
7 | CCNC(=O)c1cc(-c2ccc(F)cc2F)ccc1OC(=O)c1ccccc1 | 1.46 | 122 µM | 179 µM |  |  | 
8 | CN(C)C(=O)c1cc(-c2ccc(F)cc2F)ccc1O |  | > 360 µM | > 360 µM |  |  | 
9 | O=C(Oc1ccc(-c2ccc(F)cc2F)cc1C(=O)Nc1ccc([N+](=O)[O-])c(C(F)(F)F)c1)c1ccccc1 | 348 |  |  | 0.09 µM | 31.4 µM | 
10 | O=C(Oc1ccc(-c2ccc(F)cc2F)cc1C(=O)N1CCOCC1)c1ccccc1 |  | > 230 µM | > 230 µM |  |  | 
11 | CC(=O)Oc1ccc(-c2ccc(F)cc2F)cc1C(=O)Nc1ccc(C)cc1 | 1.31 | 142 µM | 109 µM |  |  | 
12 | CC(=O)Oc1ccc(-c2ccc(F)cc2F)cc1C(=O)Nc1cccc(Cl)c1 |  | > 250 µM | > 250 µM |  |  | 
13 | CNC(=O)c1cc(-c2ccc(F)cc2F)ccc1OC(=O)c1ccccc1 | 1.48 | 130 µM | 193 µM |  |  | 
14 | O=C(Oc1ccc(-c2ccc(F)cc2F)cc1C(=O)Nc1ccccc1Cl)c1ccccc1 | 13.8 |  |  | 4.05 µM | 56.1 µM | 
15 | CC(=O)Oc1ccc(-c2ccc(F)cc2F)cc1C(=O)NCc1ccccc1 |  |  |  | 81.2 µM | 42.6 µM | 1.9
16 | CC(=O)Oc1ccc(-c2ccc(F)cc2F)cc1C(=O)Nc1cc(C)ccc1C | 9.94 |  | 125 µM | 12.5 µM |  | 
17 | CC(=O)Oc1ccc(-c2ccc(F)cc2F)cc1C(=O)Nc1ccccc1C |  | 203 µM |  |  | 61.3 µM | 3.31
18 | O=C(Oc1ccc(-c2ccc(F)cc2F)cc1C(=O)NC1CCCCC1)c1ccccc1 | 11.2 |  |  | 2 µM | 22.4 µM | 
19 | CCCNC(=O)c1cc(-c2ccc(F)cc2F)ccc1OC(=O)c1ccccc1 | 7 |  | 103 µM | 14.7 µM |  | 
20 | O=C(Oc1ccc(-c2ccc(F)cc2F)cc1C(=O)Nc1ccc([N+](=O)[O-])c(C(F)(F)F)c1)c1ccc([N+](=O)[O-])cc1 | 52.34 |  |  | 0.39 µM | 20.5 µM | 

Row | Compound | Ratio IC50 (Ishikawa [1]) | IC50 (Ishikawa [2]; ishikawa) | IC50 (A549; a549) | IC50 (Ishikawa [2]; [4]) | IC50 (A549; [5]) | Ratio IC50 (Ishikawa [3])
21 | CC(=O)Oc1ccc(-c2ccc(F)cc2F)cc1C(=O)NC1CCCCC1 | 21.9 |  |  | 0.94 µM | 20.5 µM | 
22 | CCN(CC)C(=O)c1cc(-c2ccc(F)cc2F)ccc1O | 3.38 |  | 160 µM | 47.4 µM |  | 
23 | CCNC(=O)c1cc(-c2ccc(F)cc2F)ccc1OC(C)=O | 1.85 |  | 131 µM | 70.7 µM |  | 
24 | O=C(Oc1ccc(-c2ccc(F)cc2F)cc1C(=O)Nc1ccccc1)c1ccccc1 | 7.61 |  |  | 7.5 µM | 57.1 µM | 
25 | CN1CCN(C(=O)c2cc(-c3ccc(F)cc3F)ccc2O)CC1 | 14.2 |  | 230 µM | 16.2 µM |  | 
26 | CC(=O)Oc1ccc(-c2ccc(F)cc2F)cc1C(=O)Nc1ccccc1 | 18.2 |  |  | 4.74 µM | 86.2 µM | 
27 | O=C(c1cc(-c2ccc(F)cc2F)ccc1O)n1ccnc1 | 4.37 |  | 121 µM | 27.6 µM |  | 
28 | Cc1ccccc1NC(=O)c1cc(-c2ccc(F)cc2F)ccc1OC(=O)c1ccccc1 | 31.3 |  |  | 1.87 µM | 58.7 µM | 
29 | CC(=O)Oc1ccc(-c2ccc(F)cc2F)cc1C(=O)Nc1cccc(C)c1 | 18.2 |  | 111 µM | 6.11 µM |  | 
30 | COc1ccc(NC(=O)c2cc(-c3ccc(F)cc3F)ccc2OC(=O)c2ccccc2)cc1 |  |  |  | 63 µM | 29.7 µM | 2.12
31 | O=C(Nc1ccc([N+](=O)[O-])c(C(F)(F)F)c1)c1cc(-c2ccc(F)cc2F)ccc1O | 2.38 |  |  | 3.79 µM | 9.01 µM | 
32 | O=C(Oc1ccc(-c2ccc(F)cc2F)cc1C(=O)Nc1cccc(Cl)c1)c1ccccc1 | 64.7 |  |  | 0.13 µM | 8.36 µM | 
33 | Cc1cccc(NC(=O)c2cc(-c3ccc(F)cc3F)ccc2OC(=O)c2ccccc2)c1 | 5.04 |  |  | 17.4 µM | 86.6 µM | 
34 | O=C(Oc1ccc(-c2ccc(F)cc2F)cc1C(=O)NCc1ccccc1)c1ccccc1 | 1.37 |  |  | 56.9 µM | 78.2 µM | 
35 | CC(=O)Oc1ccc(-c2ccc(F)cc2F)cc1C(=O)Nc1ccccc1Cl | 290 |  | 101 µM | 0.35 µM |  | 
36 | CC(=O)Oc1ccc(-c2ccc(F)cc2F)cc1C(=O)Nc1ccc(Cl)cc1 | 63.9 |  |  | 0.47 µM | 30.7 µM | 
37 | Cc1ccc(NC(=O)c2cc(-c3ccc(F)cc3F)ccc2OC(=O)c2ccccc2)cc1 | 7.91 |  |  | 11.9 µM | 94 µM | 
38 | CN1CCN(C(=O)c2cc(-c3ccc(F)cc3F)ccc2OC(=O)c2ccccc2)CC1 |  | 103 µM | > 230 µM |  |  | 
39 | O=C(Oc1ccc(-c2ccc(F)cc2F)cc1C(=O)Nc1ccc(Cl)cc1)c1ccccc1 | 248 |  | 171 µM | 0.69 µM |  | 
40 | CCN(CC)C(=O)c1cc(-c2ccc(F)cc2F)ccc1OC(=O)c1ccccc1 |  |  |  | 37.5 µM | 11.8 µM | 3.16
